This passage reports Ki results from US10160762B2, “6-alkyl dihydropyrazolopyrimidinone compounds as PDE2 inhibitors” (Merck Sharp & Dohme Corp., priority 2015, dated 2018).

Some results are limits rather than exact numbers.

This assay concerns the target T1, human PDE2A1 (Homo sapiens, UniProt O00408).
T1 construct: GST; purchased BPS Bioscience (San Diego, Calif.) 60020; host or cells: insect cells
The assay can be described thus: IMAP FP PDE assay, human PDE2A1. It counts as biochemical. Particulars: Lab B; read-out: Human PDE2 Ki (nM) Lab B. In a few lines:
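FP (IMAP) read after 60 min room-temperature reaction of insect-cell GST-human PDE2A1 with 50 nM FAM-cAMP plus 1000 nM cGMP (pH 7.2 Tris, Mg2+, DTT). Compounds titrated 3-fold over ten points. Apparent Ki derived assuming KM of 10,000 nM; enzyme at 20% substrate turnover.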

T1 sequence (O00408 1-920 isoform O00408-2): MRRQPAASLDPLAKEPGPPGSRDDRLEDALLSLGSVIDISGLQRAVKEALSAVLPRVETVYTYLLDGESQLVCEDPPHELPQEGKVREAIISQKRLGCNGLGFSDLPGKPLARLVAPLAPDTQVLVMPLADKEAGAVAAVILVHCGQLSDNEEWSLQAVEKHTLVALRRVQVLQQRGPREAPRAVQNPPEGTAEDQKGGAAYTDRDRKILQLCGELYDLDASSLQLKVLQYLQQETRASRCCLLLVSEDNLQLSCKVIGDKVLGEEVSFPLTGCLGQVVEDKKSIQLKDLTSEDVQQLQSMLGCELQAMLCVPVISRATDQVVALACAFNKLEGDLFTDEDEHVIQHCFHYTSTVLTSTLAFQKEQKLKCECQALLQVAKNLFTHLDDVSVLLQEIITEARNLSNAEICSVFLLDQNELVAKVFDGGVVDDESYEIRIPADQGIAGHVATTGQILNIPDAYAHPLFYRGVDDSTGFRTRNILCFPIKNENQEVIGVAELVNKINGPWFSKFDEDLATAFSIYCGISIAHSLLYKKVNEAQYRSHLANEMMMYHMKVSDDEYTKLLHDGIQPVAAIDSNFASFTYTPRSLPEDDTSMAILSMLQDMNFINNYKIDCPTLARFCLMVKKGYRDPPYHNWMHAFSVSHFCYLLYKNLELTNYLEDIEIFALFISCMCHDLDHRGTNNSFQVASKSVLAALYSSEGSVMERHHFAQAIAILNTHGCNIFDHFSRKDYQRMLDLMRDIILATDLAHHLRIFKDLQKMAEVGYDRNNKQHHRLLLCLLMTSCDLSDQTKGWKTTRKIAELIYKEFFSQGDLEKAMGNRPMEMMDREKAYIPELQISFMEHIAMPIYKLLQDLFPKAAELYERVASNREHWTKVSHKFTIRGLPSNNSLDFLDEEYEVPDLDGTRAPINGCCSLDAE

In general, Ki refers to the dissociation constant of the complex between target and ligand, obtained from inhibition or displacement. `Cc1nc2c(c(C(N)=O)nn2C(C)c2ccc(C(F)(F)F)cc2)c(=O)[nH]1` (single isomer, unassigned) [Example 257]: the inhibitory constant (Ki) turned out to be 115 nM.
For `Cc1nc2c(c(C(F)F)nn2C(C)c2ccc(S(F)(F)(F)(F)F)cc2)c(=O)[nH]1` (single isomer, unassigned) [Example 162], the Ki turned out to be 1.8 nM.
Then `Cc1nc2c(c(O)nn2[C@@H](C)c2ccc(C(F)(F)F)cc2)c(=O)[nH]1` [Example 329, (S)-3-Hydroxy-6-methyl-1-(1-(4-(trifluoromethyl)phenyl)ethyl)-1,5-dihydro-4H-pyrazolo[3,4-d]pyrimidin-4-one], with 2080 nM.
As for `CC(=O)c1ccc(C(C)n2nc(CO)c3c(=O)[nH]c(C)nc32)cc1` (single isomer, unassigned) [Example 291], the figure is 104 nM; as for `Cc1nc2c(c(CO)nn2C(C)c2ccc(C(F)(F)F)c(I)c2)c(=O)[nH]1` (single isomer, unassigned) [Example 138, (R)- or (S)-3-(Hydroxymethyl)-1-(1-(3-iodo-4-(trifluoromethyl-)phenyl)ethyl)-6-methyl-1,5-dihydro-4H-pyrazolo[3,4-d]pyrimidin-4-one], over 2960 nM.
In the case of `CNC(=O)c1nn(C(C)c2ccc(C(F)(F)F)cc2)c2nc(C)[nH]c(=O)c12` (single isomer, unassigned) [Example 264], the Ki worked out at 233 nM.
Turning to `Cc1nc2c(c(CO)nn2C(C)c2ccc(C3(C(F)(F)F)CC3)cc2)c(=O)[nH]1` (single isomer, unassigned) [Example 81], the Ki came to 7.7 nM.
On to `Cc1nc2c(c(CC(C)O)nn2C(C)c2ccc(C(F)(F)F)cc2)c(=O)[nH]1` (single isomer, unassigned) [Example 246], for which the Ki was 72 nM.
Then `COCc1nc2c(c(C(F)F)nn2C(C)c2ccc(C(F)(F)F)cc2)c(=O)[nH]1` (single isomer, unassigned) [Example 188, (S)- or (R)-3-(Difluoro-methyl)-6-(methoxymethyl)-1-{1-[4-(trifluoromethyl)phenyl]ethyl}-1,5-dihydro-4H-pyrazolo-[3,4-d]pyrimidin-4-one], with 2.6 nM; and `Cc1nc2c(c(C(=O)NCC(F)(F)F)nn2C(C)c2ccc(C(F)(F)F)cc2)c(=O)[nH]1` (single isomer, unassigned) [Example 269, (S)- or (R)-6-Methyl-4-oxo-N-(2,2,2-trifluoroethyl)-1-(1-(4-(trifluoromethyl)phenyl)ethyl)-4,5-dihydro-1H-pyrazolo[3,4-d]pyrimidine-3-carboxamide], with about 1430 nM.
Turning to `Cc1nc2c(c(C(F)F)nn2C(c2ccc(C(F)(F)F)cc2)C(C)C)c(=O)[nH]1` (single isomer, unassigned) [Example 172, (S)- or (R)-3-(Difluoromethyl)-6-methyl-1-(2-methyl-1-(4-(trifluoromethyl)phenyl)propyl)-1H-pyrazolo[3,4-d] pyrimidin-4(5H)-one], the Ki was found to be 0.31 nM.
For the compound `Cc1nc2c(c(CF)nn2C(c2ccc(C(F)(F)F)c(F)c2)C2CC2)c(=O)[nH]1` (single isomer, unassigned) [Example 227, (S)- or (R)-1-(Cyclopropyl(3-fluoro-4-(trifluoromethyl)phenyl)methyl)-3-(fluoromethyl)-6-methyl-1,5-dihydro-4H-pyrazolo[3,4-d]pyrimidin-4-one], the Ki was found to be 32 nM.
As for `CC(C)Cc1nc2c(c(CO)nn2C(C)c2ccc(C(F)(F)F)cc2)c(=O)[nH]1` (single isomer, unassigned) [Example 305, (R)- or (S)-3-(Hydroxy-methyl)-6-isobutyl-1-(1-(4-(trifluoromethyl)phenyl)ethyl)-1,5-dihydro-4H-pyrazolo-[3,4-d]pyrimidin-4-one], the Ki came to 17 nM.
As to `Cc1nc2c(c(CO)nn2C2(c3ccc(C(F)(F)F)cc3)CC2)c(=O)[nH]1` [Example 142, 3-(Hydroxymethyl)-6-methyl-1-(1-(4-(trifluoromethyl)phenyl)cyclopropyl)-1H-pyrazolo[3,4-d]pyrimidin-4(5H)-one], the Ki worked out at 8.2 nM.
For the compound `Cc1nc2c(c(C(N)=O)nn2C(C)c2ccc(C(F)(F)F)cc2)c(=O)[nH]1` (single isomer, unassigned) [Example 256], the Ki is 86 nM.
As for `Cc1nc2c(c(C(F)F)nn2C(C)c2ccc(OC(F)(F)F)cc2)c(=O)[nH]1` (single isomer, unassigned) [Example 177, (R)- or (S)-3-(Difluoromethyl)-6-methyl-1-(1-(4-(trifluoromethoxy)phenyl)ethyl)-1H-pyrazolo[3,4-d]pyrimidin-4(5H)-one], the Ki turned out to be 61 nM.
Consider `Cc1nc2c(c(CO)nn2C(C)c2ccc(C(F)(F)F)c(C)c2)c(=O)[nH]1` (single isomer, unassigned) [Example 106, (R)- or (S)-3-(Hydroxymethyl)-6-methyl-1-(1-(3-methyl-4-(trifluoromethyl)phenyl)ethyl)-1H-pyrazolo[3,4-d]pyrimidin-4(5H)-one], for which the Ki was determined as 633 nM.
Turning to `Cc1nc2c(c(CO)nn2C2CCc3cc(C(F)(F)F)ccc32)c(=O)[nH]1` (single isomer, unassigned) [Example 102, (R)- or (S)-3-(Hydroxymethyl)-6-methyl-1-(5-(trifluoromethyl)-2,3-dihydro-1H-inden-1-yl)-1H-pyrazolo[3,4-d]pyrimidin-4(5H)-one], the Ki was over 2960 nM.
On to `Cc1nc2c(c(C3CCCO3)nn2C(C)c2ccc(C(F)(F)F)cc2)c(=O)[nH]1` (single isomer, unassigned) [Example 70, (R, R)- or (R, S) or (S, R) or (S, S)-6-Methyl-3-(-tetrahydrofuran-(trifluoromethyl)phenyl)ethyl)-1H-pyrazolo[3,4-d]pyrimidin-4(5H)-one], for which the Ki is 159 nM.
`Cc1nc2c(c(-c3ccco3)nn2C(C)c2ccc(C(F)(F)F)cc2)c(=O)[nH]1` (single isomer, unassigned) [Example 75, (S)- or (R)-3-(Furan-2-yl)-6-methyl-1-(1-(4-(trifluoromethyl)phenyl)ethyl)-1H-pyrazolo[3,4-d]pyrimidin-4(5H)-one]: the Ki was 203 nM.
As for `CC(c1ccc(C(F)(F)F)cc1)n1nc(CO)c2c(=O)[nH]c(C3CCCO3)nc21` (single isomer, unassigned) [Example 313, (R,S)- or (S,R)- or (R,R)- or (S,S)-3-(Hydroxymethyl)-6-(tetrahydrofuran-2-yl)-1-(1-(4-(trifluoromethyl)-phenyl)ethyl)-1,5-dihydro-4H-pyrazolo[3,4-d]pyrimidin-4-one], the figure is 22 nM; as for `Cc1nc2c(c(CO)nn2C(C)c2ccc(SC(F)(F)F)cc2)c(=O)[nH]1` (single isomer, unassigned) [Example 22, (R)- or (S)-3-(Hydroxymethyl)-6-methyl-1-(1-(4-(trifluoromethylthio)phenyl)ethyl)-1H-pyrazolo[3,4-d]pyrimidin-4(5H)-one], 125 nM.
Turning to `Cc1nc2c(c(Br)nn2C(C)c2ccc(C(F)(F)F)cc2)c(=O)[nH]1` (single isomer, unassigned) [Example 325], the Ki turned out to be 3.7 nM.
As for `Cc1nc2c(c(CO)nn2C(C)c2ccc(C(C)(F)F)cc2)c(=O)[nH]1` (single isomer, unassigned) [Example 117, (S)- or (R)-1-(1-(4-(1,1-Difluoroethyl)phenyl)ethyl)-3-(hydroxymethyl)-6-methyl-1H-pyrazolo[3,4-d]pyrimidin-4(5H)-one], the Ki amounted to 1.1 nM.
As for `Cc1nc2c(c(CO)nn2C(C)c2ccc(OC(F)(F)F)cc2F)c(=O)[nH]1` (single isomer, unassigned) [Example 104, (R)- or (S)-1-(1-(2-Fluoro-4-(trifluoromethoxy)phenyl)ethyl)-3-(hydroxymethyl)-6-methyl-1H-pyrazolo[3,4-d]pyrimidin-4(5H)-one], the Ki was found to be 162 nM.
As for `CC(c1ccc(C(F)(F)F)cc1)n1nc(C(F)F)c2c(=O)[nH]c(C3CC3)nc21` (single isomer, unassigned) [Example 191, (R)- or (S)-6-Cyclopropyl-3-(difluoromethyl)-1-(1-(4-(trifluoromethyl)phenyl)ethyl)-1,5-dihydro-4H-pyrazolo[3,4-d]pyrimidin-4-one], the Ki was found to be 268 nM.
Then `Cc1nc2c(c(CO)nn2C(C)c2ccc(C(C)(F)F)cc2)c(=O)[nH]1` (single isomer, unassigned) [Example 116, (R)- or (S)-1-(1-(4-(1,1-Difluoroethyl)phenyl)ethyl)-3-(hydroxymethyl)-6-methyl-1H-pyrazolo[3,4-d]pyrimidin-4(5H)-one], with 392 nM.
For the compound `Cc1nc2c(c(CO)nn2C(C)c2ccc(C(F)(F)F)cc2F)c(=O)[nH]1` (single isomer, unassigned) [Example 16, (R)- or (S)-1-(1-(2-Fluoro-4-(trifluoromethyl)phenyl)ethyl)-3-(hydroxymethyl)-6-methyl-1H-pyrazolo[3,4-d]pyrimidin-4(5H)-one], the Ki is 81 nM.
On to `Cc1nc2c(c(C(F)F)nn2C(C)c2ccc(C(F)(F)F)cc2F)c(=O)[nH]1` (single isomer, unassigned) [Example 186, (S)- or (R)-3-(Difluoro-methyl)-1-(1-(2-fluoro-4-(trifluoromethyl)phenyl)ethyl)-6-methyl-1H-pyrazolo[3,4-d]pyrimidin-4(5H)-one], for which the Ki was found to be 0.63 nM.
Take `Cc1nc2c(c(C3CCCO3)nn2C(C)c2ccc(C(F)(F)F)cc2)c(=O)[nH]1` (single isomer, unassigned) [Example 72, (S, R)- or (S, S)- or (R, S)- or (R, R)-6-Methyl-3-(-tetrahydrofuran-(trifluoromethyl)phenyl)ethyl)-1H-pyrazolo[3,4-d]pyrimidin-4(5H)-one]: the Ki amounted to 570 nM.
